Data set [1] can be described thus: Light stability in oral preparations. The class given is physicochemical.
The subject of data set [2] is rats of Sprague-Dawley stock. In words: Chronic toxicity. In kind it is in vivo. The following applies: Sprague-Dawley rats of both sexes, oral and intravenous way, 50 mg/kg per day for three months. On the procedure:
The chronic toxicity of the new derivatives has been studied by oral and intravenous way in the rats of Sprague-Dawley stock of both sexes, of body weight of about 210 g. The new derivatives, used as drops or in aqueous solution, have been administred to groups of 10 animals (5 males and 5 females). The tests have been carried out in parallel with equivalent amounts of ubiquinone (hydroalcoholic solution). The doses have been of 50 mg/kg per day for three months.

Consider Ubiquinone bisulphite [Example 1], for which the “stability under the effect of the light” value in data set [1] is “high stability”.
Consider `COC1=C(OC)C(=O)C(C/C=C(\C)CC/C=C(\C)CC/C=C(\C)CC/C=C(\C)CC/C=C(\C)CC/C=C(\C)CC/C=C(\C)CC/C=C(\C)CC/C=C(\C)CCC=C(C)C)=C(C)C1=O` [ubiquinone, Ubiquinone(10)], for which, in data set [2], the “toxic effects (chronic toxicity)” value was “No toxic effects”.

(Values after EP0200794A1, “Derivatives of ubiquinone, process for their preparation and pharmaceutical compositions containing them” (MAGIS FARMACEUTICI S.p.A., priority 1985, dated 1986).)
